PubChem BioAssay AID2060601 (Molecular Pharmacology Branch, DTP, NCI, 2025)

Tested on: 874868-142-R-J2-PDC complex spheroids, growth % test/control
Assay: Anticancer human tumor 874868-142-R-J2-PDC patient-derived head and neck squamous carcinoma cell line growth inhibition [CLK]
Conditions: for IC50: curve of first compound; for viability, T/C: stronger effect = lower value
Outline: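 Multi-cell-type spheroids combined patient-derived tumor cells with HUVEC endothelial cells and human mesenchymal stem cells. Paired agents were dosed in half-log steps down from about clinical Cmax, or from 10 microM where Cmax was unknown.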

[1] = second compound 0.0316 µM, first compound 0.0316 µM
[2] = second compound 0.0316 µM, first compound 0.1 µM
[3] = second compound 0.0316 µM, first compound 0.316 µM
[4] = second compound 0.0316 µM, first compound 1 µM
[5] = second compound 0.1 µM, first compound 0.0316 µM
[6] = second compound 0.1 µM, first compound 0.1 µM
[7] = second compound 0.1 µM, first compound 0.316 µM
[8] = second compound 0.1 µM, first compound 1 µM
[9] = second compound 0.316 µM, first compound 0.0316 µM
[10] = second compound 0.316 µM, first compound 0.1 µM
[11] = second compound 0.316 µM, first compound 0.316 µM
[12] = second compound 0.316 µM, first compound 1 µM
[13] = second compound 1 µM, first compound 0.0316 µM
[14] = second compound 1 µM, first compound 0.1 µM
[15] = second compound 1 µM, first compound 0.316 µM
[16] = second compound 1 µM, first compound 1 µM
[17] = second compound 3.16 µM, first compound 0.0316 µM
[18] = second compound 3.16 µM, first compound 0.1 µM
[19] = second compound 3.16 µM, first compound 0.316 µM
[20] = second compound 3.16 µM, first compound 1 µM
[21] = second compound 10 µM, first compound 0.0316 µM
[22] = second compound 10 µM, first compound 0.1 µM
[23] = second compound 10 µM, first compound 0.316 µM
[24] = second compound 10 µM, first compound 1 µM
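Also: spheroids exposed to the compounds for 7 days.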
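For viability, T/C in this document: 100% = DMSO vehicle control viability.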

C=CC(=O)Nc1cc(Nc2nccc(-c3cn(C)c4ccccc34)n2)c(OC)cc1N(C)CCN(C)C + CN1CCN(c2cc(C(=O)Nc3cc4cc(-c5cnn(C)c5)ccc4cn3)ccn2)CC1 gave an IC50 (second compound 0.0316 µM) of 51.9 nM, an IC50 (second compound 0.1 µM) of 21.9 nM and an IC50 (second compound 0.316 µM) of under 0.949 nM. The IC50 (second compound 1 µM) was under 0.949 nM, the IC50 (second compound 3.16 µM) was under 0.949 nM and the IC50 (second compound 10 µM) was under 0.949 nM. For the same compound, the viability, T/C (second compound 0.0316 µM, first compound 0.000949 µM) was 84.1%, the viability, T/C (second compound 0.0316 µM, first compound 0.003 µM) was 90.5% and the viability, T/C (second compound 0.0316 µM, first compound 0.00949 µM) was 80.3%. For the same compound, the viability, T/C (second compound 0.0316 µM, first compound 0.03 µM) was 61.9%, the viability, T/C (second compound 0.0316 µM, first compound 0.0949 µM) was 37.1% and the viability, T/C (second compound 0.0316 µM, first compound 0.3 µM) was 27.3%. It also gave a viability, T/C (second compound 0.1 µM, first compound 0.000949 µM) of 76%, a viability, T/C (second compound 0.1 µM, first compound 0.003 µM) of 70.6% and a viability, T/C (second compound 0.1 µM, first compound 0.00949 µM) of 59.1%. It also gave a viability, T/C (second compound 0.1 µM, first compound 0.03 µM) of 49.6%, a viability, T/C (second compound 0.1 µM, first compound 0.0949 µM) of 26.8% and a viability, T/C (second compound 0.1 µM, first compound 0.3 µM) of 22%. The viability, T/C (second compound 0.316 µM, first compound 0.000949 µM) was 19.2%, the viability, T/C (second compound 0.316 µM, first compound 0.003 µM) was 16.2% and the viability, T/C (second compound 0.316 µM, first compound 0.00949 µM) was 19.7%. The viability, T/C (second compound 0.316 µM, first compound 0.03 µM) was 9.31%, the viability, T/C (second compound 0.316 µM, first compound 0.0949 µM) was 15.2% and the viability, T/C (second compound 0.316 µM, first compound 0.3 µM) was 7.92%. The viability, T/C (second compound 1 µM, first compound 0.000949 µM) was 0.41%, the viability, T/C (second compound 1 µM, first compound 0.003 µM) was 0.88% and the viability, T/C (second compound 1 µM, first compound 0.00949 µM) was 1.96%. It also gave a viability, T/C (second compound 1 µM, first compound 0.03 µM) of 0.37%, a viability, T/C (second compound 1 µM, first compound 0.0949 µM) of 0.71% and a viability, T/C (second compound 1 µM, first compound 0.3 µM) of 0.79%. The viability, T/C (second compound 3.16 µM, first compound 0.000949 µM) was 0.27%, the viability, T/C (second compound 3.16 µM, first compound 0.003 µM) was 0.34% and the viability, T/C (second compound 3.16 µM, first compound 0.00949 µM) was 0.26%. It also gave a viability, T/C (second compound 3.16 µM, first compound 0.03 µM) of 0.66%, a viability, T/C (second compound 3.16 µM, first compound 0.0949 µM) of 4.28% and a viability, T/C (second compound 3.16 µM, first compound 0.3 µM) of 0.48%. The viability, T/C (second compound 10 µM, first compound 0.000949 µM) was 7.4%, the viability, T/C (second compound 10 µM, first compound 0.003 µM) was 0.25% and the viability, T/C (second compound 10 µM, first compound 0.00949 µM) was 3.1%. The viability, T/C (second compound 10 µM, first compound 0.03 µM) was 0.21%, the viability, T/C (second compound 10 µM, first compound 0.0949 µM) was 1.3% and the viability, T/C (second compound 10 µM, first compound 0.3 µM) was 2.16%.

In the case of CCN1CCN(Cc2ccc(Nc3ncc(F)c(-c4cc(F)c5nc(C)n(C(C)C)c5c4)n3)nc2)CC1 + CN1CCN(c2cc(C(=O)Nc3cc4cc(-c5cnn(C)c5)ccc4cn3)ccn2)CC1, the IC50 (second compound 0.0316 µM) is reported as over 1000 nM, the IC50 (second compound 0.1 µM) is reported as over 1000 nM and the IC50 (second compound 0.316 µM) is reported as under 3.16 nM. It also gave an IC50 (second compound 1 µM) of under 3.16 nM, an IC50 (second compound 3.16 µM) of under 3.16 nM and an IC50 (second compound 10 µM) of under 3.16 nM. For the same compound, the viability, T/C (second compound 0.0316 µM, first compound 0.00316 µM) was 82.8%, the viability, T/C (second compound 0.0316 µM, first compound 0.01 µM) was 65% and the viability, T/C [1] was 82.2%. It also gave a viability, T/C [2] of 89%, a viability, T/C [3] of 72% and a viability, T/C [4] of 110%. The viability, T/C (second compound 0.1 µM, first compound 0.00316 µM) was 85.4%, the viability, T/C (second compound 0.1 µM, first compound 0.01 µM) was 66.9% and the viability, T/C [5] was 54.9%. For the same compound, the viability, T/C [6] was 66.8%, the viability, T/C [7] was 62.5% and the viability, T/C [8] was 91%. It also gave a viability, T/C (second compound 0.316 µM, first compound 0.00316 µM) of 22.7%, a viability, T/C (second compound 0.316 µM, first compound 0.01 µM) of 22.2% and a viability, T/C [9] of 25.9%. The viability, T/C [10] was 23.1%, the viability, T/C [11] was 43.9% and the viability, T/C [12] was 49.6%. For the same compound, the viability, T/C (second compound 1 µM, first compound 0.00316 µM) was 0.58%, the viability, T/C (second compound 1 µM, first compound 0.01 µM) was 0.34% and the viability, T/C [13] was 0.43%. The viability, T/C [14] was 0.43%, the viability, T/C [15] was 0.48% and the viability, T/C [16] was 0.58%. The viability, T/C (second compound 3.16 µM, first compound 0.00316 µM) was 0.3%, the viability, T/C (second compound 3.16 µM, first compound 0.01 µM) was 2.83% and the viability, T/C [17] was 0.23%. The viability, T/C [18] was 0.83%, the viability, T/C [19] was 0.56% and the viability, T/C [20] was 1%. The viability, T/C (second compound 10 µM, first compound 0.00316 µM) was 0.7%, the viability, T/C (second compound 10 µM, first compound 0.01 µM) was 2.35% and the viability, T/C [21] was 0.16%. It also gave a viability, T/C [22] of 0.16%, a viability, T/C [23] of 0.18% and a viability, T/C [24] of 4.41%.

With Nc1ccccc1NC(=O)c1ccc(CNC(=O)OCc2cccnc2)cc1 + CN1CCN(c2cc(C(=O)Nc3cc4cc(-c5cnn(C)c5)ccc4cn3)ccn2)CC1 the IC50 (second compound 0.0316 µM) was 7470 nM, the IC50 (second compound 0.1 µM) was 4500 nM and the IC50 (second compound 0.316 µM) was under 31.6 nM. For the same compound, the IC50 (second compound 1 µM) was under 31.6 nM, the IC50 (second compound 3.16 µM) was under 31.6 nM and the IC50 (second compound 10 µM) was under 31.6 nM. It also gave a viability, T/C [1] of 86.7%, a viability, T/C [2] of 79.6% and a viability, T/C [3] of 88.7%. The viability, T/C [4] was 116%, the viability, T/C (second compound 0.0316 µM, first compound 3.16 µM) was 94.5% and the viability, T/C (second compound 0.0316 µM, first compound 10 µM) was 35.2%. It also gave a viability, T/C [5] of 73.2%, a viability, T/C [6] of 67.8% and a viability, T/C [7] of 72.5%. For the same compound, the viability, T/C [8] was 102%, the viability, T/C (second compound 0.1 µM, first compound 3.16 µM) was 62.8% and the viability, T/C (second compound 0.1 µM, first compound 10 µM) was 21.2%. For the same compound, the viability, T/C [9] was 13.4%, the viability, T/C [10] was 15.8% and the viability, T/C [11] was 15.8%. It also gave a viability, T/C [12] of 17.9%, a viability, T/C (second compound 0.316 µM, first compound 3.16 µM) of 7.51% and a viability, T/C (second compound 0.316 µM, first compound 10 µM) of 0.19%. The viability, T/C [13] was 0.32%, the viability, T/C [14] was 6.56% and the viability, T/C [15] was 0.28%. For the same compound, the viability, T/C [16] was 0.17%, the viability, T/C (second compound 1 µM, first compound 3.16 µM) was 0.12% and the viability, T/C (second compound 1 µM, first compound 10 µM) was 2.14%. The viability, T/C [17] was 0.23%, the viability, T/C [18] was 0.27% and the viability, T/C [19] was 0.18%. The viability, T/C [20] was 0.2%, the viability, T/C (second compound 3.16 µM, first compound 3.16 µM) was 0.27% and the viability, T/C (second compound 3.16 µM, first compound 10 µM) was 0.26%. For the same compound, the viability, T/C [21] was 0.1%, the viability, T/C [22] was 0.32% and the viability, T/C [23] was 0.16%. The viability, T/C [24] was 0.14%, the viability, T/C (second compound 10 µM, first compound 3.16 µM) was 0.18% and the viability, T/C (second compound 10 µM, first compound 10 µM) was 2.46%.
